This note sets out measurements from ChEMBL document CHEMBL5291721, “A preclinical secondary pharmacology resource illuminates target-adverse drug reaction associations of marketed drugs” (Nat Commun, 2023).

The target of test [1] is Vasopressin V2 receptor (Homo sapiens, UniProt P30518).
Test [2] has as its target T1, Alpha-1A adrenergic receptor (Homo sapiens, UniProt P35348).
T1 sequence (P35348 whole entry): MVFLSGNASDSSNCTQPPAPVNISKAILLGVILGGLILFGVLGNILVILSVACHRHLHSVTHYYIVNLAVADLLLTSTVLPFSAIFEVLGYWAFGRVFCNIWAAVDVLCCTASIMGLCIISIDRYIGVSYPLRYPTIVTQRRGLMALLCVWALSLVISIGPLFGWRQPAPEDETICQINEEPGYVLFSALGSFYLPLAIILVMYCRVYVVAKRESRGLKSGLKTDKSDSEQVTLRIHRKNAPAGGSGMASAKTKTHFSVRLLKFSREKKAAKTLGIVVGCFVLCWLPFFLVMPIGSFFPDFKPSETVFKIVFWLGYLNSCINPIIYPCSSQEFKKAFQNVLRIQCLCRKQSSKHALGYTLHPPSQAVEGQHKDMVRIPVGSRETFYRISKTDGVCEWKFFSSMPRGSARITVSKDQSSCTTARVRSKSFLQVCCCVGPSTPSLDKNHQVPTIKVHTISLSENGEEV
It counts as functional, cell-based.

Test [3] addresses Gamma-aminobutyric acid receptor subunit alpha-1 (Rattus norvegicus, UniProt P62813). The test is classed as functional.
Test [4] deals with Vasopressin V1a receptor (Homo sapiens, UniProt P37288).
Test [5] has as its target T2, Muscarinic acetylcholine receptor M2 (Homo sapiens, UniProt P08172).
T2 sequence (P08172 whole entry): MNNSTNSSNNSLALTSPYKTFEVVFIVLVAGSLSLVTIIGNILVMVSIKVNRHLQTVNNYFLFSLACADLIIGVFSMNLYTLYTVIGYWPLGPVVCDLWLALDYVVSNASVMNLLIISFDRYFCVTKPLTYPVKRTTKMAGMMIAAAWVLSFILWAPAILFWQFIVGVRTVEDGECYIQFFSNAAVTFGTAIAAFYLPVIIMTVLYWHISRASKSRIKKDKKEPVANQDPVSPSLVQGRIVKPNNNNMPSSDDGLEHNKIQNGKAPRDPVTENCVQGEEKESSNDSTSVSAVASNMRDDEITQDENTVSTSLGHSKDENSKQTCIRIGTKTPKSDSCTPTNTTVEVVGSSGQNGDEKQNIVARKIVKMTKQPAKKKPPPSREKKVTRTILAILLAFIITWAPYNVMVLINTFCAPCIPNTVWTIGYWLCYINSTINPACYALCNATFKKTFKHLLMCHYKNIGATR
The test is classed as functional, cell-based.

The target in test [6] is T3, Adenosine receptor A3 (Homo sapiens, UniProt P0DMS8).
T3 sequence (P0DMS8 whole entry): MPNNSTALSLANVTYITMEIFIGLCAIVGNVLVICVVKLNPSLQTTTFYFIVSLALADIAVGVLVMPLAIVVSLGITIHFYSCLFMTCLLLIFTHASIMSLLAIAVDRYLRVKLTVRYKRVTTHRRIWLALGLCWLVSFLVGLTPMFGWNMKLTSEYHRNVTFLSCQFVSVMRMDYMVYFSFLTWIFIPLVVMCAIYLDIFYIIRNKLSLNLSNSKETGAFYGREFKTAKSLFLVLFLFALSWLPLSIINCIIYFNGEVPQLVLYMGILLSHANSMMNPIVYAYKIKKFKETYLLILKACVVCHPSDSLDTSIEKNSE

Test [7] concerns the target T4, Amine oxidase [flavin-containing] A (Homo sapiens, UniProt P21397).
T4 sequence (P21397 whole entry): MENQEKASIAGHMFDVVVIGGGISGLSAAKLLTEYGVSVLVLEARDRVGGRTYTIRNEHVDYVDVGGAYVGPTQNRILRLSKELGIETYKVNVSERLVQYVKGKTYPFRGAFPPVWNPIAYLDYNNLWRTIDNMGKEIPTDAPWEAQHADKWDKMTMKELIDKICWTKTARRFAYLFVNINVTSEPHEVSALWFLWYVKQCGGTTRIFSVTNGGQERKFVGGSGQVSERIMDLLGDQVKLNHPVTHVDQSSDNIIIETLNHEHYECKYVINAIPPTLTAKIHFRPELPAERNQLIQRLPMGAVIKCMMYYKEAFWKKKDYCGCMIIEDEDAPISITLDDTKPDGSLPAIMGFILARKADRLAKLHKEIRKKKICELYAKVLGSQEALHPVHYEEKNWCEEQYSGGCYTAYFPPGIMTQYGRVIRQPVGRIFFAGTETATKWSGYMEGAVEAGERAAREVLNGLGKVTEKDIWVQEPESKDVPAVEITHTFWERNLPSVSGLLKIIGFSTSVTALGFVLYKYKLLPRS
The test is classed as functional.

Test [8] addresses Sodium-dependent noradrenaline transporter (Homo sapiens, UniProt P23975).
For test [9], the target named is T5, Neuropeptide Y receptor type 1 (Homo sapiens, UniProt P25929).
T5 sequence (P25929 whole entry): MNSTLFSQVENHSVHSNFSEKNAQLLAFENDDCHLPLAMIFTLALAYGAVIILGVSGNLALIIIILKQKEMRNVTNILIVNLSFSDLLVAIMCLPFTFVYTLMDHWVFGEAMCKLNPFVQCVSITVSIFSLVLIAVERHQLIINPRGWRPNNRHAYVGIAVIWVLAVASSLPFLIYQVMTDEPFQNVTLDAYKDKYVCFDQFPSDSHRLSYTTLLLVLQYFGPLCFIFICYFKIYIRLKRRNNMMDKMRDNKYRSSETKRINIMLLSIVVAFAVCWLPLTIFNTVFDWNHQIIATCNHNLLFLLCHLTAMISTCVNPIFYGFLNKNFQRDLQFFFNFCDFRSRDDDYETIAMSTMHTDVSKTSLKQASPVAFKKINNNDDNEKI

The target in test [10] is Beta-1 adrenergic receptor (Homo sapiens, UniProt P08588). The test is classed as functional.
Test [11] has as its target T2, Muscarinic acetylcholine receptor M2. It counts as functional, cell-based. The source holds these as a separate data set.

What is called AC50 is the concentration at which the activity in the assay is half-maximal. The low end stands for greater potency, the high end for weaker potency.

The structures appear in SMILES notation.
Note: assay procedure not described here.

Vasopressin V1a receptor, sequence (P37288 whole entry): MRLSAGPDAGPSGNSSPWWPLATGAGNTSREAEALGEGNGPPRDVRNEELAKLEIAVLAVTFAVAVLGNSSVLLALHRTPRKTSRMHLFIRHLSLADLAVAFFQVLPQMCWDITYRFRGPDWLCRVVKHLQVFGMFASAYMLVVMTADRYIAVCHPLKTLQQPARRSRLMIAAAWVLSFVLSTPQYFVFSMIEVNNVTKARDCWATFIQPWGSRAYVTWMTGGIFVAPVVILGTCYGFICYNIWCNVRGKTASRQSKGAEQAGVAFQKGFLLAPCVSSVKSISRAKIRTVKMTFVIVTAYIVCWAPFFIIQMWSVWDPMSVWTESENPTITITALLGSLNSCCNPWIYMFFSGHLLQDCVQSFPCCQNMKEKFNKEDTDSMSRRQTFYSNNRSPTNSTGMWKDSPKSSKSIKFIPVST
Beta-1 adrenergic receptor, sequence (P08588 whole entry): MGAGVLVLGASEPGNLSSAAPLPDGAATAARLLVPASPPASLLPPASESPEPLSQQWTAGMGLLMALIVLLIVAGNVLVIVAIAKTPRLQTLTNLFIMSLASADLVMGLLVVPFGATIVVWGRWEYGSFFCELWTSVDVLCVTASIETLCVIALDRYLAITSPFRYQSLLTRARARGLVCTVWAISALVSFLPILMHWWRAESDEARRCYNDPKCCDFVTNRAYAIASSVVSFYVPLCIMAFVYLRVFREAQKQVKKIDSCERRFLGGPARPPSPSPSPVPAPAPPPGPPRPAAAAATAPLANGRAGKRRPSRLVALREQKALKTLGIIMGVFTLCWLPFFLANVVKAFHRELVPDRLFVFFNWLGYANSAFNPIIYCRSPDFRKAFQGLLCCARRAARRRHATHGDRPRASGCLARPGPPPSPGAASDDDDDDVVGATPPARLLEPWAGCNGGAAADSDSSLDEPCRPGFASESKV
Sodium-dependent noradrenaline transporter, sequence (P23975 whole entry): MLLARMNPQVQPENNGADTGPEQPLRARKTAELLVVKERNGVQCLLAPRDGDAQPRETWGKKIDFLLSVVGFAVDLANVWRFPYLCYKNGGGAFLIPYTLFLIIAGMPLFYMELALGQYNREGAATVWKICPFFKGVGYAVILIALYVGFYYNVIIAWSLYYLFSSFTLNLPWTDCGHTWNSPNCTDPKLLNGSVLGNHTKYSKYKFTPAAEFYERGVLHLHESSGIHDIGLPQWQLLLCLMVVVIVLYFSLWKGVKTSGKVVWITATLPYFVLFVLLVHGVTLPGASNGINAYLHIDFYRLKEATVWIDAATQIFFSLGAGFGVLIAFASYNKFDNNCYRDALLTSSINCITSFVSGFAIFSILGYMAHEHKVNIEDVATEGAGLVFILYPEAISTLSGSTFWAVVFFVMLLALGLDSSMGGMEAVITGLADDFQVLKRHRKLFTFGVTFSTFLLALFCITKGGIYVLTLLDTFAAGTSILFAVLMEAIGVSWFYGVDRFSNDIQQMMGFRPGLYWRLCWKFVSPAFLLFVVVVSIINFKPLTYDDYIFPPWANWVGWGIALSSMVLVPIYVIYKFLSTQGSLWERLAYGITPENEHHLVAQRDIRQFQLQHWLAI
Vasopressin V2 receptor, sequence (P30518 whole entry): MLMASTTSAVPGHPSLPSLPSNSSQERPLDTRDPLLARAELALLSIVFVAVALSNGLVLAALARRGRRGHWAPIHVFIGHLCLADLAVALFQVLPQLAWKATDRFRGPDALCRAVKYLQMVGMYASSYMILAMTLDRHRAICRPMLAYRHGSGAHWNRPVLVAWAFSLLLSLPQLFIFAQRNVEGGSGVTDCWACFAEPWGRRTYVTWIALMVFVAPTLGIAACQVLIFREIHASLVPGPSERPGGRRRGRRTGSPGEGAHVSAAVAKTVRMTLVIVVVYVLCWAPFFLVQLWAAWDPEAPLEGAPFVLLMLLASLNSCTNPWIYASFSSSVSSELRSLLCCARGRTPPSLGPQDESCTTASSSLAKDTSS
Gamma-aminobutyric acid receptor subunit alpha-1, sequence (P62813 whole entry): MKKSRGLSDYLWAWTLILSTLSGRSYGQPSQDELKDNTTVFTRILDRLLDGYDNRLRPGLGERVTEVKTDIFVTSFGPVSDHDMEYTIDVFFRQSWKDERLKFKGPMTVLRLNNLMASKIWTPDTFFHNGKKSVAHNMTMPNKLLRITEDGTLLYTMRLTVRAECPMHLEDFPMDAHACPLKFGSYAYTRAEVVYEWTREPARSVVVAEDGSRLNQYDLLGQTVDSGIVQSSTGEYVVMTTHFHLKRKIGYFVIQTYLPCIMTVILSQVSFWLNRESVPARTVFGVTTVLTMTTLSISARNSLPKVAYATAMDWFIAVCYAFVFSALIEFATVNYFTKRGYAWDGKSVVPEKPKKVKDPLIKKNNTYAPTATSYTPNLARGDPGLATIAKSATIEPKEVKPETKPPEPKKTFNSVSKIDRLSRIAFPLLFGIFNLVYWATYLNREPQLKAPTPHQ

As for `Oc1cc(Cl)ccc1Oc1ccc(Cl)cc1Cl` [TRICLOSAN], the concentration at half-maximal activity (AC50) was over 30 µM in [1]; over 30 µM in [2]; over 30 µM in [3]; over 30 µM in test [4]; over 30 µM in test [5]; 8.9 µM in [6]. Besides, the half-maximal activity concentration (AC50) was over 30 µM in test [7], 0.7 µM in [8], over 30 µM in test [9] and over 30 µM in [10].
As to `CC(C)(Oc1ccc(Cl)cc1)C(=O)OCCOC(=O)c1cccnc1` [ETOFIBRATE], the AC50 in [1], in test [2], in [11], in test [3], in [4] and in test [5] was over 30 µM each time. The AC50 in test [6], in [8], in [9] and in test [10] was over 30 µM in each case.
On to `CCn1c(=O)c2c(nc(/C=C/c3ccc(OC)c(OC)c3)n2C)n(CC)c1=O` [ISTRADEFYLLINE], for which the AC50 is over 30 µM in test [2]; over 30 µM in test [11]; over 30 µM in [5]; 24 µM in test [6]; over 30 µM in test [7]; over 30 µM in test [8].
For `COc1ccc(C(=O)c2ccccc2)c(O)c1` [OXYBENZONE], the AC50 in [2], in [11], in test [3], in test [5] and in test [7] was over 30 µM each time.
Regarding `CN(C)CCC(O)(c1ccccc1)c1ccccc1Cl` (centres undefined) [CHLOPHEDIANOL], the AC50 in [1], in test [11], in [3], in test [4], in test [5] and in test [6] was over 10 µM each time. The AC50 in test [7], in test [8], in test [9] and in [10] was over 10 µM each time.
For the compound `Cc1ccc(O)c([C@H](CCN(C(C)C)C(C)C)c2ccccc2)c1` [TOLTERODINE], the AC50 in [2] is over 30 µM; in test [3], over 10 µM; in test [7], over 10 µM; in test [8], over 10 µM; in test [10] it was over 10 µM.
Take `COc1ccc(-c2cc(=S)ss2)cc1` [ANETHOLTRITHION]: the concentration at half-maximal activity (AC50) is over 30 µM in [1]; over 30 µM in test [2]; over 30 µM in test [11]; over 30 µM in test [3]; 8.7 µM in [4]; over 30 µM in test [5]. The AC50 in test [6] was 7.7 µM; in test [7], 7.4 µM; in test [8], 7.3 µM; in test [9], 9.8 µM; in [10], over 10 µM.
Take `C[C@]12C=CC(=O)C=C1CC[C@@H]1[C@@H]2[C@@H](O)C[C@@]2(C)[C@H]1CC[C@]2(O)C(=O)CO` [PREDNISOLONE]: the AC50 is over 30 µM in [1]; over 30 µM in test [2]; over 10 µM in test [11]; over 10 µM in test [3]; over 30 µM in [4]; over 10 µM in [5]. In addition, the AC50 in test [6] is over 30 µM; in [7] it was over 10 µM; in test [8], over 30 µM; in test [9], over 30 µM; in test [10], over 10 µM.
Turning to `CNC(=O)c1cnn(-c2nc(N)c3ncn([C@@H]4O[C@H](CO)[C@@H](O)[C@H]4O)c3n2)c1` [REGADENOSON ANHYDROUS], the half-maximal activity concentration (AC50) in test [6] is 3.7 µM.
With `C[C@]12C=CC(=O)C=C1C(Cl)=C[C@@H]1[C@@H]2[C@@H](O)C[C@@]2(C)[C@H]1CC[C@]2(O)C(=O)CO` [CLOPREDNOL], the AC50 in [1] is over 30 µM; in test [11], over 30 µM; in [3], over 30 µM; in test [4] it was over 30 µM; in [5], over 30 µM; in [6], 13 µM. The AC50 in [7], in test [8], in test [9] and in test [10] was over 30 µM in each case.
For `CC1(C)O[C@@H]2C[C@H]3[C@@H]4CCC5=CC(=O)C=C[C@]5(C)[C@@]4(F)[C@@H](O)C[C@]3(C)[C@]2(C(=O)CO)O1` [TRIAMCINOLONE ACETONIDE], the AC50 in test [1], in test [11], in test [3], in [5], in [6] and in [7] was over 30 µM each time. Moreover, the AC50 in [9] and in test [10] was over 30 µM in each case.
Consider `CC(C)(C)NCC(O)COc1ccccc1C#N` (centres undefined) [BUNITROLOL], for which the AC50 in [2] is over 30 µM; in test [11] it was over 30 µM; in test [3], over 30 µM; in [5] it was over 30 µM; in test [7], 14 µM.
As for `COc1cccc2c1C(=O)c1c(O)c3c(c(O)c1C2=O)C[C@@](O)(C(=O)CO)C[C@@H]3O[C@H]1C[C@H](N)[C@H](O)[C@H](C)O1` [DOXORUBICIN], the AC50 in test [1] is over 30 µM; in test [11], over 10 µM; in test [3] it was over 10 µM; in test [4], over 30 µM; in [5], over 10 µM; in [6] it was over 30 µM. The AC50 in test [7], in test [8], in [9] and in test [10] was over 30 µM throughout.
As to `CCC(=O)c1ccc2c(c1)N(CC(C)N(C)C)c1ccccc1S2` (centres undefined) [PROPIOMAZINE], the AC50 in test [1] is over 10 µM; in test [11], over 10 µM; in [3], over 10 µM; in test [4], over 10 µM; in [5], 1.1 µM; in test [6], over 10 µM. The AC50 in test [7], in test [8], in test [9] and in test [10] was over 10 µM in each case.
Turning to `Cc1cn(-c2cc(NC(=O)c3ccc(C)c(Nc4nccc(-c5cnccn5)n4)c3)cc(C(F)(F)F)c2)cn1` [RADOTINIB], the AC50 in test [2] was over 30 µM; in test [11] it was over 30 µM; in [5] it was over 30 µM; in test [6], 3.3 µM; in [7], over 30 µM; in test [8], over 30 µM. Besides, the AC50 in test [10] was over 30 µM.
